Measurements published in ChEMBL document CHEMBL4229370, “Discovery of novel quinazolinone derivatives as high potent and selective PI3Kδ and PI3Kδ/γ inhibitors” (Eur J Med Chem, 2018).

What was measured:
[1] = target: T1, Phosphatidylinositol 4,5-bisphosphate 3-kinase catalytic subunit delta isoform (Homo sapiens, UniProt O00329); assay: Inhibition of PI3Kdelta (unknown origin) using Biotin-S11S12 as substrate after 120 mins in presence of ATP by ADPGlo luminescence assay
T1 sequence (O00329 whole entry): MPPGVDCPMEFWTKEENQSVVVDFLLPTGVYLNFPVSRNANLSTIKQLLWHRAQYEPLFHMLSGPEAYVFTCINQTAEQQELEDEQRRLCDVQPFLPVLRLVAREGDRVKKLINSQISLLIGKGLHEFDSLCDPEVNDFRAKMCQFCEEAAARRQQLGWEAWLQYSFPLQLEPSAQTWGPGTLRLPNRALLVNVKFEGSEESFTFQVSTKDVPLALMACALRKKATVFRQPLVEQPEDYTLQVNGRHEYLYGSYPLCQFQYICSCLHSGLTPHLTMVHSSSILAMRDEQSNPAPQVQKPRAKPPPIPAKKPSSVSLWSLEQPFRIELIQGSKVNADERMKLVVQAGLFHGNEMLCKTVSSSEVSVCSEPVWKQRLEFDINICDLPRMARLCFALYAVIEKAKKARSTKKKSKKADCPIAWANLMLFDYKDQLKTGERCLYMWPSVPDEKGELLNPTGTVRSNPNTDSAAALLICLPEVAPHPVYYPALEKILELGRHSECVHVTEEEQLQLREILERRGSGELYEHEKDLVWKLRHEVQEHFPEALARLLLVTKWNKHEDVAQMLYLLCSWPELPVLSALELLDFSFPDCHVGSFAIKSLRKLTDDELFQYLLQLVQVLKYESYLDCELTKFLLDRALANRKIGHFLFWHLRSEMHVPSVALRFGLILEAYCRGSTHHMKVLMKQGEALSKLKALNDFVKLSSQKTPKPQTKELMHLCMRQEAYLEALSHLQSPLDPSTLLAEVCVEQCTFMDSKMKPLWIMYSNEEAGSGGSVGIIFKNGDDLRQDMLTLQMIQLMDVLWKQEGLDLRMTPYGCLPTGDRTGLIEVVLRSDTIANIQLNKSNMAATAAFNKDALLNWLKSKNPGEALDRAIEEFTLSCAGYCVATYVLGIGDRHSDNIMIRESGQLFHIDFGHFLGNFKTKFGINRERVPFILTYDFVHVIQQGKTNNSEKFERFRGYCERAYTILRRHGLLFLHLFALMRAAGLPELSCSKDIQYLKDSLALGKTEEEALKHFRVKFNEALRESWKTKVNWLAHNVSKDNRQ

[2] = target: T2, Phosphatidylinositol 4,5-bisphosphate 3-kinase catalytic subunit delta isoform (Homo sapiens) (UniProt O00329); assay: Inhibition of PI3Kdelta (unknown origin) at 1 uM using Biotin-S11S12 as substrate after 120 mins in presence of ATP by ADPGlo luminescence assay
T2 sequence (whole entry): T1 sequence (O00329 whole entry)

[3] = AUClast in Sprague-Dawley rat at 10 mg/kg, po; assay type: ADME, organism-based; design: dose 10 mg/kg, time 0 - last, route oral; conditions: in vivo
[4] = Clearance in Sprague-Dawley rat at 1 mg/kg, iv; assay type: ADME, organism-based; conditions: in vivo
[5] = target: Phosphatidylinositol 4,5-bisphosphate 3-kinase catalytic subunit alpha isoform (Homo sapiens, UniProt P42336); assay: Inhibition of PI3Kalpha (unknown origin) using Biotin-S11S12 as substrate after 60 mins in presence of ATP by Kinase Glo luminescence assay
[6] = target: Phosphatidylinositol 4,5-bisphosphate 3-kinase catalytic subunit beta isoform (Homo sapiens, UniProt P42338); assay: Inhibition of PI3Kbeta (unknown origin) using Biotin-S11S12 as substrate after 60 mins in presence of ATP by ADPGlo luminescence assay
[7] = target: Phosphatidylinositol 4,5-bisphosphate 3-kinase catalytic subunit gamma isoform (Homo sapiens, UniProt P48736); assay: Inhibition of PI3Kgamma (unknown origin) using Biotin-S11S12 as substrate after 60 mins in presence of ATP by ADPGlo luminescence assay
Homo sapiens [8] = species: Homo sapiens; assay: Selectivity index, ratio of IC50 for PI3Kalpha (unknown origin) to IC50 for PI3Kdelta (unknown origin)
Homo sapiens [9] = species: Homo sapiens; assay: Selectivity index, ratio of IC50 for PI3Kbeta (unknown origin) to IC50 for PI3Kdelta (unknown origin)
Homo sapiens [10] = species: Homo sapiens; assay: Selectivity index, ratio of IC50 for PI3Kgamma (unknown origin) to IC50 for PI3Kdelta (unknown origin)
SU-DHL-6 = assay: Growth inhibition of human SU-DHL6 cells by CellTiter-Glo assay; assay type: functional
[11] = AUClast in Sprague-Dawley rat at 1 mg/kg, iv; assay type: ADME, organism-based; design: dose 1 mg/kg, time 0 - last, route intravenous; conditions: in vivo
[12] = AUC (0 to infinity) in Sprague-Dawley rat at 1 mg/kg, iv; assay type: ADME, organism-based; design: dose 1 mg/kg, time infinity, route intravenous; conditions: in vivo
[13] = Volume of distribution at steady state in Sprague-Dawley rat at 1 mg/kg, iv; assay type: ADME, organism-based; conditions: in vivo, read-out: Vdss
[14] = Terminal half-life in Sprague-Dawley rat at 1 mg/kg, iv; assay type: ADME, organism-based; conditions: in vivo, read-out: beta t1/2 (converted)
[15] = AUC (0 to infinity) in Sprague-Dawley rat at 10 mg/kg, po; assay type: ADME, organism-based; design: dose 10 mg/kg, time infinity, route oral; conditions: in vivo
[16] = Terminal half-life in Sprague-Dawley rat at 10 mg/kg, po; assay type: ADME, organism-based; conditions: in vivo, read-out: beta t1/2 (converted)
[17] = Oral bioavailability in Sprague-Dawley rat at 10 mg/kg; assay type: ADME, organism-based; conditions: in vivo
[18] = MRT (infinity) in Sprague-Dawley rat at 1 mg/kg, iv; assay type: ADME, organism-based; conditions: in vivo
[19] = Tmax in Sprague-Dawley rat at 10 mg/kg, po; assay type: ADME, organism-based; conditions: in vivo
[20] = Cmax in Sprague-Dawley rat at 10 mg/kg, po; assay type: ADME, organism-based; design: dose 10 mg/kg, route oral; conditions: in vivo
[21] = Plasma concentration in Sprague-Dawley rat at 1 mg/kg, iv after 0.083 hrs; assay type: ADME, organism-based
[22] = Plasma concentration in Sprague-Dawley rat at 1 mg/kg, iv after 0.25 hrs; assay type: ADME, organism-based
[23] = Plasma concentration in Sprague-Dawley rat at 1 mg/kg, iv after 0.5 hrs; assay type: ADME, organism-based
[24] = Plasma concentration in Sprague-Dawley rat at 1 mg/kg, iv after 1 hrs; assay type: ADME, organism-based
[25] = Plasma concentration in Sprague-Dawley rat at 1 mg/kg, iv after 2 hrs; assay type: ADME, organism-based
[26] = Plasma concentration in Sprague-Dawley rat at 1 mg/kg, iv after 4 hrs; assay type: ADME, organism-based
[27] = Plasma concentration in Sprague-Dawley rat at 1 mg/kg, iv after 8 hrs; assay type: ADME, organism-based
[28] = Plasma concentration in Sprague-Dawley rat at 1 mg/kg, iv after 24 hrs; assay type: ADME, organism-based; conditions: in vivo, BLD = below limit of detection
[29] = Plasma concentration in Sprague-Dawley rat at 10 mg/kg, po after 0.083 hrs; assay type: ADME, organism-based
[30] = Plasma concentration in Sprague-Dawley rat at 10 mg/kg, po after 0.25 hrs; assay type: ADME, organism-based
[31] = Plasma concentration in Sprague-Dawley rat at 10 mg/kg, po after 0.5 hrs; assay type: ADME, organism-based
[32] = Plasma concentration in Sprague-Dawley rat at 10 mg/kg, po after 1 hrs; assay type: ADME, organism-based
[33] = Plasma concentration in Sprague-Dawley rat at 10 mg/kg, po after 2 hrs; assay type: ADME, organism-based
[34] = Plasma concentration in Sprague-Dawley rat at 10 mg/kg, po after 4 hrs; assay type: ADME, organism-based
[35] = Plasma concentration in Sprague-Dawley rat at 10 mg/kg, po after 8 hrs; assay type: ADME, organism-based
[36] = Plasma concentration in Sprague-Dawley rat at 10 mg/kg, po after 24 hrs; assay type: ADME, organism-based; conditions: in vivo, BLD = below limit of detection

Sequence of Phosphatidylinositol 4,5-bisphosphate 3-kinase catalytic subunit beta isoform (P42338 whole entry, canonical isoform): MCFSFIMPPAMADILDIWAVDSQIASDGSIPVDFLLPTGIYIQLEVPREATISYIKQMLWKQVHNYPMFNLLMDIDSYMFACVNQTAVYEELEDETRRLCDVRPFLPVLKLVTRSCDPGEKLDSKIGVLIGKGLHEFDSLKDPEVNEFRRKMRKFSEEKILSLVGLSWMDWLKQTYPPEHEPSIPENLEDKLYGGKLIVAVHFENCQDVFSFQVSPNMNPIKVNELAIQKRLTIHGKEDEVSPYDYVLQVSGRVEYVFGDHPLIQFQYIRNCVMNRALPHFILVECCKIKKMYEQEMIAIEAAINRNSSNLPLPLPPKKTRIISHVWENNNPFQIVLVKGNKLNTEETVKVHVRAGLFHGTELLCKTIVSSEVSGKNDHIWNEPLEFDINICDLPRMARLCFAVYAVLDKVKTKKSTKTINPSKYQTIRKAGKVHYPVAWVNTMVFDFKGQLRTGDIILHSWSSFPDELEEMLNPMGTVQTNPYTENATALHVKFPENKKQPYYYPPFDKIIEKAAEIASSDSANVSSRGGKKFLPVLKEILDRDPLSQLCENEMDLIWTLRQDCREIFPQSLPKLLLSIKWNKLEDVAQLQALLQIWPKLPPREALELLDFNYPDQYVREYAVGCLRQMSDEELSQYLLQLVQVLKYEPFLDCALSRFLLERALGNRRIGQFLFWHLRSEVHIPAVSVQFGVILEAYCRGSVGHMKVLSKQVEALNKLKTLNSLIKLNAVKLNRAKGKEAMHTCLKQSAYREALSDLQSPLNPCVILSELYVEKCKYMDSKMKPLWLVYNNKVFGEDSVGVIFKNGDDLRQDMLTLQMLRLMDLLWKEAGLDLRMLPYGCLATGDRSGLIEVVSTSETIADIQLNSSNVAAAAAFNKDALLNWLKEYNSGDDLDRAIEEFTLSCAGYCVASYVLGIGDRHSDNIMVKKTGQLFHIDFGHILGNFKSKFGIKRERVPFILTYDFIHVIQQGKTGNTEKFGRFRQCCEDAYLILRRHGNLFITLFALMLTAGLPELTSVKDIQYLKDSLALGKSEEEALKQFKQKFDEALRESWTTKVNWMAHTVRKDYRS
Sequence of Phosphatidylinositol 4,5-bisphosphate 3-kinase catalytic subunit gamma isoform (P48736 whole entry, canonical isoform): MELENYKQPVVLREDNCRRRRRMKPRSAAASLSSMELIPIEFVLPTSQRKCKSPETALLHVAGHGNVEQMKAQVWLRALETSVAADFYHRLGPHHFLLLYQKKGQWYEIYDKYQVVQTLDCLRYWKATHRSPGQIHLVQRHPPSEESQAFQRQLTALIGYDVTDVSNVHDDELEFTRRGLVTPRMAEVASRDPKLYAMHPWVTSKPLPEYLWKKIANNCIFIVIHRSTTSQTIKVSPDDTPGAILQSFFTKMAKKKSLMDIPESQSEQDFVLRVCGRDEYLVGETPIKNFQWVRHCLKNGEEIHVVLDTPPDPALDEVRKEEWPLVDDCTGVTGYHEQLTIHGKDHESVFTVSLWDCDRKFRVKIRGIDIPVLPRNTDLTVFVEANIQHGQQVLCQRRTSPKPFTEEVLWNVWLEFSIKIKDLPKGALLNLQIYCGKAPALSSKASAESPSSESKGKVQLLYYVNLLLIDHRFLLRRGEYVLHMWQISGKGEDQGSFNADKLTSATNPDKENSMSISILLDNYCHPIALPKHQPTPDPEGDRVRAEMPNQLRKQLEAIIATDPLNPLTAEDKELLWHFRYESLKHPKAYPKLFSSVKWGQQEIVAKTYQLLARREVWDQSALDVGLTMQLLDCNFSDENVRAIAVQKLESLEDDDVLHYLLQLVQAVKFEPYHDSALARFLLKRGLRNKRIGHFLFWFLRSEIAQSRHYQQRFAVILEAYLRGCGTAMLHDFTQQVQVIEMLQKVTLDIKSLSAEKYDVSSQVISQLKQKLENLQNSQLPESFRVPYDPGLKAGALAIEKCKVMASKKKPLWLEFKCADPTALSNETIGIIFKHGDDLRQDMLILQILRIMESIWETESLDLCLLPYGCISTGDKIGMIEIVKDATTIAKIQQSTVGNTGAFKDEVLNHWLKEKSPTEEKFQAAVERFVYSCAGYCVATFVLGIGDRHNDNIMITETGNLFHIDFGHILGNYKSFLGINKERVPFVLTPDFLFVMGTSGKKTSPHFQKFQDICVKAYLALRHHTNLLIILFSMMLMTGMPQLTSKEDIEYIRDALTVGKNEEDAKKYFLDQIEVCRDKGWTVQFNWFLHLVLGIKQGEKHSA
Sequence of Phosphatidylinositol 4,5-bisphosphate 3-kinase catalytic subunit alpha isoform (P42336 whole entry, canonical isoform): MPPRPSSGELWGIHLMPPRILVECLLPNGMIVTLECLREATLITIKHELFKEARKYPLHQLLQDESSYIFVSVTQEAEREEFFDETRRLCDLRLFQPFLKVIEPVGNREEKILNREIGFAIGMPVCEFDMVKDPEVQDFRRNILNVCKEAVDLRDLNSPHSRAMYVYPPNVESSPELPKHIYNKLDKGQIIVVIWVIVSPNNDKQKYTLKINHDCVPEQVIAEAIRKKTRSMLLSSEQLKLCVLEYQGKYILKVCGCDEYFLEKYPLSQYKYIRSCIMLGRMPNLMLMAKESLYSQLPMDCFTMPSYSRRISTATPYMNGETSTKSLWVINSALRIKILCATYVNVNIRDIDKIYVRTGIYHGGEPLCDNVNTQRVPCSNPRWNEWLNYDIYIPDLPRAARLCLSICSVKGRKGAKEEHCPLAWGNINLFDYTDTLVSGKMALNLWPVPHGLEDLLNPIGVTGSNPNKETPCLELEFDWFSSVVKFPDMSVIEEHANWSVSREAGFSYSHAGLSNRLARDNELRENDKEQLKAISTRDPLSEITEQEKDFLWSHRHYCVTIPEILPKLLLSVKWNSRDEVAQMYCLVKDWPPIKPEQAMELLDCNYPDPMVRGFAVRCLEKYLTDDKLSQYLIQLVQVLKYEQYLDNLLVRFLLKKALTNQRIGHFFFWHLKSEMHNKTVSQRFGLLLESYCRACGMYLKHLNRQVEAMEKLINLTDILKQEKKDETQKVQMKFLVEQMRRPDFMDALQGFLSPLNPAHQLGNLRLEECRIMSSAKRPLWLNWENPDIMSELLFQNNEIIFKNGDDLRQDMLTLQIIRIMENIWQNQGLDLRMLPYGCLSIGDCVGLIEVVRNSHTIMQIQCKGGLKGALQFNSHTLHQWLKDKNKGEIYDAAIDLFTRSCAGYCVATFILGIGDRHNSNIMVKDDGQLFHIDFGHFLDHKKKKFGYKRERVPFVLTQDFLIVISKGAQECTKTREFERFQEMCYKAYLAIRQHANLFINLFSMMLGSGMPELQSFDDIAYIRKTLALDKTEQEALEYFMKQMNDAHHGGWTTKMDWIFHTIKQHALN

COc1ccc(-c2nn(Cc3nc4cccc(F)c4c(=O)n3-c3ccccc3C)c3ncnc(N)c23)cn1
IC50 [1]: 31 nM | inhibition [2]: 92.7%

Cc1cccc(C)c1-n1c(Cn2nc(-c3ccc4c(c3)OCO4)c3c(N)ncnc32)nc2cccc(F)c2c1=O
IC50 [1]: 84 nM | inhibition [2]: 89.1%

Cc1cccc(C)c1-n1c(Cn2nc(-c3ccc4cc(O)ccc4c3)c3c(N)ncnc32)nc2cccc(F)c2c1=O
IC50 [1]: 416 nM | inhibition [2]: 77.3%

Cc1cccc(C)c1-n1c(Cn2nc(-c3ccc4[nH]ccc4c3)c3c(N)ncnc32)nc2cccc(F)c2c1=O
AUC(0-t) [3]: 808 ng·h/mL | clearance [4]: 36 mL/min/kg | IC50 [1]: 8.6 nM | inhibition [2]: 96.8% | IC50 [5]: 31300 nM | IC50 [6]: 3370 nM | IC50 [7]: 363 nM | Ratio IC50 (Homo sapiens [8]): 3640 | Ratio IC50 (Homo sapiens [9]): 392 | Ratio IC50 (Homo sapiens [10]): 42 | GI50 (SU-DHL-6): 149 nM | AUC(0-t) [11]: 471 ng·h/mL | AUC(0-inf) [12]: 473 ng·h/mL | Vd [13]: 1.11 L/kg | half-life [14]: 50.4 min | AUC(0-inf) [15]: 820 ng·h/mL | half-life [16]: 78.6 min | bioavailability [17]: 17.3% | MRT inf [18]: 30.6 min | Tmax [19]: 50 min | Cmax [20]: 387 ng/mL | concentration at 0.083 h [21]: 1020 ng/mL | concentration at 0.25 h [22]: 541 ng/mL | concentration at 0.5 h [23]: 250 ng/mL | concentration at 1 h [24]: 64.3 ng/mL | concentration at 2 h [25]: 13.1 ng/mL | concentration at 4 h [26]: 2.58 ng/mL | concentration at 8 h [27]: 1.83 ng/mL | Cp [28]: Bld | concentration at 0.083 h [29]: 198 ng/mL | concentration at 0.25 h [30]: 343 ng/mL | concentration at 0.5 h [31]: 379 ng/mL | concentration at 1 h [32]: 318 ng/mL | concentration at 2 h [33]: 192 ng/mL | concentration at 4 h [34]: 9.86 ng/mL | concentration at 8 h [35]: 6.5 ng/mL | Cp [36]: Bld

Cc1ccccc1-n1c(Cn2nc(-c3cccc(OC(F)(F)F)c3)c3c(N)ncnc32)nc2cccc(F)c2c1=O
inhibition [2]: 70.8%

Cc1ccccc1-n1c(Cn2nc(-c3cnc4ccccc4c3)c3c(N)ncnc32)nc2cccc(F)c2c1=O
IC50 [1]: 86 nM | inhibition [2]: 90%

Cc1ccccc1-n1c(Cn2nc(-c3ccc4cc(O)ccc4c3)c3c(N)ncnc32)nc2cccc(F)c2c1=O
IC50 [1]: 227 nM | inhibition [2]: 73%

COc1ccc(-c2nn(Cc3nc4cccc(F)c4c(=O)n3-c3c(C)cccc3C)c3ncnc(N)c23)cc1OC
AUC(0-t) [3]: 3530 ng·h/mL | clearance [4]: 16.5 mL/min/kg | IC50 [1]: 8.4 nM | inhibition [2]: 96.8% | IC50 [5]: 11800 nM | IC50 [6]: 6960 nM | IC50 [7]: 62 nM | Ratio IC50 (Homo sapiens [8]): 1410 | Ratio IC50 (Homo sapiens [9]): 828 | Ratio IC50 (Homo sapiens [10]): 7 | GI50 (SU-DHL-6): 222 nM | AUC(0-t) [11]: 1010 ng·h/mL | AUC(0-inf) [12]: 1020 ng·h/mL | Vd [13]: 0.45 L/kg | half-life [14]: 37.2 min | AUC(0-inf) [15]: 3550 ng·h/mL | half-life [16]: 101 min | bioavailability [17]: 34.9% | MRT inf [18]: 30.6 min | Tmax [19]: 50 min | Cmax [20]: 387 ng/mL | concentration at 0.083 h [21]: 1020 ng/mL | concentration at 0.25 h [22]: 541 ng/mL | concentration at 0.5 h [23]: 250 ng/mL | concentration at 1 h [24]: 64.3 ng/mL | concentration at 2 h [25]: 13.1 ng/mL | concentration at 4 h [26]: 2.58 ng/mL | concentration at 8 h [27]: 1.83 ng/mL | Cp [28]: Bld | concentration at 0.083 h [29]: 198 ng/mL | concentration at 0.25 h [30]: 343 ng/mL | concentration at 0.5 h [31]: 379 ng/mL | concentration at 1 h [32]: 318 ng/mL | concentration at 2 h [33]: 192 ng/mL | concentration at 4 h [34]: 9.86 ng/mL | concentration at 8 h [35]: 6.5 ng/mL | Cp [36]: Bld

COc1ccc(-c2nn(Cc3nc4cccc(F)c4c(=O)n3-c3ccccc3C)c3ncnc(N)c23)cc1OC
IC50 [1]: 26 nM | inhibition [2]: 90.8%

Cc1cccc(C)c1-n1c(Cn2nc(-c3cccc(OC(F)(F)F)c3)c3c(N)ncnc32)nc2cccc(F)c2c1=O
inhibition [2]: 29.6%

Cc1cccc(C)c1-n1c(Cn2nc(-c3cnc4ccccc4c3)c3c(N)ncnc32)nc2cccc(F)c2c1=O
IC50 [1]: 81 nM | inhibition [2]: 92%

CC[C@H](Nc1ncnc2[nH]cnc12)c1nc2cccc(F)c2c(=O)n1-c1ccccc1 [IDELALISIB]
inhibition [2]: 91.9% | GI50 (SU-DHL-6): 42 nM

COc1ccc(-c2nn(Cc3nc4cccc(F)c4c(=O)n3-c3c(C)cccc3C)c3ncnc(N)c23)cn1
IC50 [1]: 41 nM | inhibition [2]: 94.7%

Cc1ccccc1-n1c(Cn2nc(-c3ccc4c(c3)OCO4)c3c(N)ncnc32)nc2cccc(F)c2c1=O
IC50 [1]: 106 nM | inhibition [2]: 89.6%

Cc1ccccc1-n1c(Cn2nc(-c3ccc4[nH]ccc4c3)c3c(N)ncnc32)nc2cccc(F)c2c1=O
IC50 [1]: 16 nM | inhibition [2]: 94.7%
